Results from patent US20030099960A1, “Compositions and methods for optimizing UGT2B7 substrate dosings and for predicting UGT2B7 substrate toxicity” (The University of Chicago, priority 2001, published 2003).

Columns and labels:
human UGT1A4 = molecular target: T1, human UGT1A4 (Homo sapiens, UniProt P22310); assay: Epirubicin glucuronidation in microsomes expressing UGT1A4; conditions: Nd = not detectable
T1 sequence (P22310 29-534): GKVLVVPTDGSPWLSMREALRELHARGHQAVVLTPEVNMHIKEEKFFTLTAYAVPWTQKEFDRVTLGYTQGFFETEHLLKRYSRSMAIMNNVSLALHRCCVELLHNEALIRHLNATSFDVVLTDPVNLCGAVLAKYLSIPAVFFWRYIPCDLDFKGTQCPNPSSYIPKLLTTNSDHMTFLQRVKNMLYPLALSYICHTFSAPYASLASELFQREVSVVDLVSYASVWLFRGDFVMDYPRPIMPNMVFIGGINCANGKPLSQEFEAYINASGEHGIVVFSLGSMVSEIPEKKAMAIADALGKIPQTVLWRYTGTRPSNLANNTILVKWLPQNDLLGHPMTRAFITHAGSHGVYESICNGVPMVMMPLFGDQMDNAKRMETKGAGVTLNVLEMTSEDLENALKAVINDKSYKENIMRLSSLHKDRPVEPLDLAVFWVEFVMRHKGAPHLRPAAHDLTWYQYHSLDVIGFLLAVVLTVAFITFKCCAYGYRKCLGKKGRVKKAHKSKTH
Source text: (§1) Microsomes from human lymphoblasts and insect cells (BTI-TN-5B1-4) both transfected with a vector containing human UGT1A1, UGT1A3, UGT1A4, UGT1A6, UGT1A9 and UGT2B15 complementary DNA (cDNA) and their negative control (microsomes from cells infected with wild-type vector) were obtained from Gentest Corp. (Woburn, Mass.). Microsomes from insect cells (SF-9) infected with a baculovirus containing human cDNA for UGT2B7 and their negative control were purchased from PanVera (Madison, Wis.).
(§2) For this purpose, dried samples were reconstituted with 0.2 ml of sodium phosphate buffer (0.1 M, pH 6.8) containing 1000 U of β-glucuronidase (type VII, from E. coli) and incubated overnight at 37° C. Reference samples containing no enzyme were treated identically.
(§3) The mobile phase consisted of 30% acetonitrile and 70% 50 mM sodium dihydrogen phosphate (pH adjusted to 4 with 8.5% ortho-phosphoric acid).

human UGT1A3 = molecular target: T2, human UGT1A3 (Homo sapiens, UniProt P35503); assay: Epirubicin glucuronidation in microsomes expressing UGT1A3; conditions: Nd = not detectable
T2 sequence (P35503 29-534): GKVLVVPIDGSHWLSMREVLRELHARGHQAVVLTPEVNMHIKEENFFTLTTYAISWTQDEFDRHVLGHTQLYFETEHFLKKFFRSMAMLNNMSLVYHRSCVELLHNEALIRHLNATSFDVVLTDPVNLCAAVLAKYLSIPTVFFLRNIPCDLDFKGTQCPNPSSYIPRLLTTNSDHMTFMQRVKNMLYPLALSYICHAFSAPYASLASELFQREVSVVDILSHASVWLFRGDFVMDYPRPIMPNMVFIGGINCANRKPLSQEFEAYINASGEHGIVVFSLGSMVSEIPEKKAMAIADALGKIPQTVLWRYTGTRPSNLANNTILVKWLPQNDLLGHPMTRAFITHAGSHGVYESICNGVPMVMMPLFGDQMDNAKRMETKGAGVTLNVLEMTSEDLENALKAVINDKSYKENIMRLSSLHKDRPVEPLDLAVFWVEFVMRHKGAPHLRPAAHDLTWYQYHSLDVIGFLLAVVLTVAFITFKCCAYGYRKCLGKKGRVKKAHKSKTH
Source text: as §1, §2, §3

human UGT2B15 = molecular target: T3, human UGT2B15 (Homo sapiens, UniProt P54855); assay: Epirubicin glucuronidation in microsomes expressing UGT2B15; conditions: Nd = not detectable
T3 sequence (P54855 24-530): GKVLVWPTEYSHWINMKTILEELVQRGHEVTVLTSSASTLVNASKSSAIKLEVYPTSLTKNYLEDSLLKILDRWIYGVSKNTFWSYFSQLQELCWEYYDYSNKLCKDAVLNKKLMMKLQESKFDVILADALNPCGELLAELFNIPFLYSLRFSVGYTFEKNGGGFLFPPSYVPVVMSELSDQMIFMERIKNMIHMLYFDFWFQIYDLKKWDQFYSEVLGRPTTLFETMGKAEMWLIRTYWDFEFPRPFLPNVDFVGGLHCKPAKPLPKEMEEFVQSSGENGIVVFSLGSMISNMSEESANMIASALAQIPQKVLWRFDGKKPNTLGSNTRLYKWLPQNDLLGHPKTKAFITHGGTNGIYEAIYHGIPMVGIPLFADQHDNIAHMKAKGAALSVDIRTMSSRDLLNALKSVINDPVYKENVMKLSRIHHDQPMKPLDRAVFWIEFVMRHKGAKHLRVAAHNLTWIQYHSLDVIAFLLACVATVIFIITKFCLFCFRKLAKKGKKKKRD
Source text: as §1, §2, §3

[1] = cited from earlier work
human UGT1A1 = molecular target: T4, human UGT1A1 (Homo sapiens, UniProt P22309); assay: Epirubicin glucuronidation in microsomes expressing UGT1A1; conditions: Nd = not detectable
T4 sequence (P22309 26-533): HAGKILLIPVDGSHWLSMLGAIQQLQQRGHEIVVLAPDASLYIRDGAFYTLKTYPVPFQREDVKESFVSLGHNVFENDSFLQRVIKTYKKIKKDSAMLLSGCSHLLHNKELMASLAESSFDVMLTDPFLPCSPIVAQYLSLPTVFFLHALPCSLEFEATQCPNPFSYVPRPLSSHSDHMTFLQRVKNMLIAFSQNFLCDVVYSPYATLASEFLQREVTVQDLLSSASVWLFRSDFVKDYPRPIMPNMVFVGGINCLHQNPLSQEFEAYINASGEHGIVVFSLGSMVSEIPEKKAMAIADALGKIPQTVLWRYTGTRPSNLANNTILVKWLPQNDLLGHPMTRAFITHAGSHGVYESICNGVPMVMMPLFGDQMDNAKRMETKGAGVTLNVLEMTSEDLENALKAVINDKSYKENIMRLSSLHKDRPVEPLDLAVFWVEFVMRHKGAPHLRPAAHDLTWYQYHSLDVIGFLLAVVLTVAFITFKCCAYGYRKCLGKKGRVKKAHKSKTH
Source text: as §1, §2, §3

human UGT1A9 = molecular target: T5, human UGT1A9 (Homo sapiens, UniProt O60656); assay: Epirubicin glucuronidation in microsomes expressing UGT1A9; conditions: Nd = not detectable
T5 sequence (O60656 26-530): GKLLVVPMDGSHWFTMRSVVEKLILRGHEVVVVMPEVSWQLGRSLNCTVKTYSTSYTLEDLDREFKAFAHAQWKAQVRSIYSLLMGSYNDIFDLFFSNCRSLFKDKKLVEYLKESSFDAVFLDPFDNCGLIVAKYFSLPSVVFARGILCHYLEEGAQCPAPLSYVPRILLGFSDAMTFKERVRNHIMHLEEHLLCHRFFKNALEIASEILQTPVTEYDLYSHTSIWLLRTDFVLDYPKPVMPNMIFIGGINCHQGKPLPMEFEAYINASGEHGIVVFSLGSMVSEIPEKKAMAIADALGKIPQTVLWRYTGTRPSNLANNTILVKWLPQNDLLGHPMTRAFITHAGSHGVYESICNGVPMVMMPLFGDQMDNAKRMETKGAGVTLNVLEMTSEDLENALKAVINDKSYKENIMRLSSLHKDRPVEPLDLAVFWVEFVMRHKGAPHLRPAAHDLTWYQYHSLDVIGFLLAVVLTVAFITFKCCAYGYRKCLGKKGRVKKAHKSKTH
Source text: as §1, §2, §3

human UGT1A6 = molecular target: T6, human UGT1A6 (Homo sapiens, UniProt P19224); assay: Epirubicin glucuronidation in microsomes expressing UGT1A6; conditions: Nd = not detectable
T6 sequence (P19224 27-532): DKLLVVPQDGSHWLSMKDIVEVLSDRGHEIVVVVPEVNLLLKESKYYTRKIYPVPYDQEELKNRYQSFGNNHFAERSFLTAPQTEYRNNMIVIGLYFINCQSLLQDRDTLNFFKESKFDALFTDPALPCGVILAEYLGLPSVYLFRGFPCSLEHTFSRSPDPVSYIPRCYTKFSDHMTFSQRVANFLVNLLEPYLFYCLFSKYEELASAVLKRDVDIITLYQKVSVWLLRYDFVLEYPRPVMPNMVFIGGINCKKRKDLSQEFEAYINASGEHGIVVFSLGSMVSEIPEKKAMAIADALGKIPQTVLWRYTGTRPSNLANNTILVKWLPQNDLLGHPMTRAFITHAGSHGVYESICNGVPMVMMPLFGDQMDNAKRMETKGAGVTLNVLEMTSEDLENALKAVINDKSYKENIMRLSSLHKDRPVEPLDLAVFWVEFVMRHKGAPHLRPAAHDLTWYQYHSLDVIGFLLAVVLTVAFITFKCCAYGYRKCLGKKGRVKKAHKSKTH
Source text: as §1, §2, §3

For `COc1cccc2c1C(=O)c1c(O)c3c(c(O)c1C2=O)C[C@@](O)(C(=O)CO)C[C@@H]3O[C@H]1C[C@H](N)[C@@H](O)[C@H](C)O1` [Epirubicin, 4′-epi-doxorubicin], the “Formation rate of epirubicin glucuronide” value (human UGT1A4) was “No epirubicin glucuronidating activity”, the “Formation rate of epirubicin glucuronide” value (human UGT1A3) was “No epirubicin glucuronidating activity” and the “Formation rate of epirubicin glucuronide” value (human UGT2B15) was “No epirubicin glucuronidating activity”. The “Median half-life, first phase” value ([1]; 3-compartment model) was “about 3.2 minutes”, the “Median half-life, second phase” value ([1]; 3-compartment model) was ~1.2 h and the “Median half-life, third phase” value ([1]; 3-compartment model) was ~32 h. For the same compound, the “Fraction excreted in the urine” value ([1]; elimination primarily biliary) was “less than 15%”, the Total plasma clearance ([1]; human, in vivo) was “about 46 L/h/m^2” and the “Formation rate of epirubicin glucuronide” value (human UGT1A1) was “No epirubicin glucuronidating activity”. The “Formation rate of epirubicin glucuronide” value (human UGT1A9) was “No epirubicin glucuronidating activity” and the “Formation rate of epirubicin glucuronide” value (human UGT1A6) was “No epirubicin glucuronidating activity”.
